Assay results from patent publication EP4008716A1, “NOVEL INHIBITORS OF INSULIN-LIKE GROWTH FACTOR 2 MRNA BINDING PROTEINS” (Martin-Luther-Universität Halle-Wittenberg, priority 2020, dated 2022).

These compounds were tested on ES-2 cells (assay: Cytotoxicity / cell vitality by cell confluency (IncuCyte live-cell imaging) relative to DMSO controls). Conditions: Homo sapiens, ovarian cancer-derived ES-2 cells, 72 h post compound application, eleven concentrations, two-fold dilution from 20µM, mean of three independent studies.
Type: cell-based
Method: All novel inhibitors were explored for their cytotoxic activity in ovarian cancer-derived ES-2 cells. In these cell models, BTYNB was prior shown to impair cell vitality and metastatic potential in vitro and cancer mouse models (15). For the respective studies ES-2 cells were plated and exposed to increasing concentration of the compounds and cell vitality was monitored by determining cell confluency relative to DMSO controls using an IncuCyte cell imaging system, essentially as described recently (15). For determining the impact of the developed compounds on ES-2 cell vitality, cells were cultured in Dulbecco's modified eagle medium (DMEM) containing phenol red, 4.5 g/L D-Glucose, 0.11 g/L sodium pyruvate, 10% (v/v) fetal bovine serum (FBS) and 2 mM GlutaMAX (Sigma-Aldrich, Darmstadt, Germany). Cells were maintained in under humidified conditions at 37 °C, 5% CO2. For cytotoxicity studies, cells were seeded in 96-well flat-bottom plates at 2 x 10^3 cells per well in 100 µL supplemented DMEM and incubated for 24 h prior to addition of BTYNB derivatives. Compounds were analyzed at eleven concentrations using a two-fold dilution with an initial compound concentration of 20µM in DMSO (solvent). Cells treated with 0.002% (v/v) DMSO served as controls. Cytotoxicity of compound concentrations was determined 72 h post compound application by monitoring cell confluency using an IncuCyte Systems for Live-Cell Imaging. Cell confluency was determined with the IncuCyte 2019B Rev2 software. Confluency of controls was set to 1 (100%) and altered confluency at distinct compound concentrations was calculated as relative confluency. The mean relative confluency at compound concentrations was analyzed in three independent studies with three technical replicates each. The mean values of three analyses were plotted against the logarithmic concentration of compounds and fitted by the non-linear module [Sigmoidal, 4PL, X is log(concentration)] using GraphPad Prism V9(86) for macOS. In Table 1 compounds with EC50 values, indicating the potency of the 58 developed compounds to impair cell vitality, are listed. […] Table 2: EC-values of the synthesized compounds of formula (I)

**Q.** `COc1ccc(C(=O)Nc2sc(Cc3ccccc3)cc2C(N)=O)cc1COc1ccc(Cl)cc1` [compound 52, 5-Benzyl-2-{3-[(4-chlorophenoxy)methyl]-4-methoxybenzamido}thiophene-3-carboxamide] was tested. Which EC50 did it give?
**A.** The EC50 was 1020 nM.

**Q.** Which EC50 does the source give for `COc1ccc(C(=O)Nc2sc(Cc3ccccc3)cc2C(N)=O)cc1COc1cccc(Cl)c1` [compound 51, 5-Benzyl-2-{3-[(3-chlorophenoxy)methyl]-4-methoxybenzamido}thiophene-3-carboxamide] here?
**A.** The EC50 was 355 nM.

**Q.** For `COc1ccc(C(=O)Nc2sc(C(C)C)cc2C(N)=O)cc1COc1ccc(Br)cc1` [compound 58, 2-({3-[(4-Bromophenoxy)methyl]-4-methoxybenzoyl}amino)-5-isopropyl-3-thiophenecarboxamide], which EC50 is on record?
**A.** The EC50 was 8340 nM.

**Q.** For `NC(=O)c1ccccc1NC(=O)CN1CCN(Cc2ccc(Cl)cc2Cl)CC1` [compound 21, 2-({[4-(2,4-Dichlorobenzyl)-1-piperazinyl]acetyl}amino)benzamide], which EC50 is on record?
**A.** The EC50 was 993 nM.

**Q.** Which EC50 does the source give for `NC(=O)c1c(NC(=O)c2ccc(Cl)s2)sc2c1CCCC2` [compound 30, 2-{[(5-Chloro-2-thienyl)carbonyl]amino}-4,5,6,7-tetrahydro-1-benzothiophene-3-carboxamide] here?
**A.** The EC50 was 1470 nM.

**Q.** With `COc1ccc(C(=O)Nc2sc(C(C)C)cc2C(N)=O)cc1COc1ccccc1Cl` [compound 46, 2-({3-[(2-Chlorophenoxy)methyl]-4-methoxybenzoyl}amino)-5-isopropyl-3-thiophenecarboxamide] as the compound, how does the EC50 read?
**A.** Its EC50 is 2230 nM.

**Q.** How did the EC50 turn out when `CC(Sc1nnc(NC(=O)c2ccccc2)s1)c1nc2ccccc2c(=O)[nH]1` (centres unmarked) [compound 6, N-(5-{[1-(4-oxo-3,4-dihydro-2-quinazolinyl)ethyl]thio}-1,3,4-thiadiazol-2-yl)benzamide] was run?
**A.** The EC50 was 4050 nM.

**Q.** Which EC50 does the source give for `COc1cc(-c2nc3ccccc3c(=O)[nH]2)ccc1OCc1ccccc1[N+](=O)[O-]` [compound 3, 2-{3-Methoxy-4-[(2-nitrobenzyl)oxy]phenyl}-4(3H)-quinazolinone] here?
**A.** The EC50 was 476 nM.

**Q.** Which EC50 does the source give for `COc1ccc(C(=O)Nc2sc(Cc3ccccc3)cc2C(N)=O)cc1COc1ccc(Cl)cc1Cl` [compound 47, 5-Benzyl-2-{3-[(2,4-dichlorophenoxy)methyl]-4-methoxybenzamido}thiophene-3-carboxamide] here?
**A.** Its EC50 is 293 nM.

**Q.** Which EC50 does the source give for `NC(=O)c1cc(Cc2ccccc2)sc1NC(=O)Cc1cccs1` [compound 34, 5-Benzyl-2-[(2-thienylacetyl)amino]-3-thiophenecarboxamide] here?
**A.** The EC50 was 1160 nM.

**Q.** How did the EC50 turn out when `NC(=O)c1ccsc1NC(=O)c1cccs1` [compound 10, N-[3-(aminocarbonyl)-2-thienyl]-2-thiophenecarboxamide] was run?
**A.** Its EC50 is 3230 nM.

**Q.** Which EC50 does the source give for `CC(C)c1cc(C(N)=O)c(NC(=O)Cc2ccc(Cl)c(Cl)c2)s1` [compound 42, 2-{[(3,4-Dichlorophenyl)acetyl]amino}-5-isopropyl-3-thiophenecarboxamide] here?
**A.** Its EC50 is 2450 nM.

**Q.** With `NC(=O)c1cc(Cc2ccccc2)sc1NC(=O)CN1CCN(Cc2ccccc2Cl)CC1` [compound 54, 2-{2-[4-(2-Chlorobenzyl)piperazin-1-yl]acetamido}-5-benzylthiophene-3-carboxamide] as the compound, how does the EC50 read?
**A.** The EC50 was 7110 nM.

**Q.** How did the EC50 turn out when `NC(=O)c1cc(Cc2ccccc2)sc1NC(=O)c1ccc(COc2ccc(Cl)cc2Cl)s1` [compound 49, N-(5-Benzyl-3-carbamoylthiophen-2-yl)-5-[(2,4-dichlorophenoxy)methyl]thiophene-2-carboxamide] was run?
**A.** Its EC50 is 560 nM.

**Q.** `NC(=O)c1ccccc1NC(=O)CN1CCN(Cc2ccc(F)cc2Cl)CC1` [compound 25, 2-({[4-(2-Chloro-4-fluorobenzyl)-1-piperazinyl]acetyl}amino)benzamide] was tested. Which EC50 did it give?
**A.** The EC50 was 3170 nM.

**Q.** `COc1ccc(C(=O)Nc2sc(Cc3ccccc3)cc2C(N)=O)cc1OCc1ccccc1Cl` [compound 48, 2-[3-(2-Chlorobenzyloxy)-4-methoxybenzamido]-5-benzylthiophene-3-carboxamide] was tested. Which EC50 did it give?
**A.** The EC50 was 1100 nM.

What follows are compounds tested on ES-2 cells in the same assay as above. Conditions: Homo sapiens, determined in 11 analyses with three technical replicates each.
Type: cell-based

**Q.** For `NC(=O)c1ccccc1N=Cc1ccc(Br)s1` [BTYNB, 2-{[(5-bromo-2-thienyl)methylene]amino}benzamide], which EC50 is on record?
**A.** Its EC50 is 5.9 µM.
